Patent publication US4604386A, “3-(alkynylalkyloxy) cephalosporins” (Eli Lilly and Company, priority 1984, dated 1986)

What was measured:
in vivo [1] = conditions: rat, po, 20 mg/kg
[2] = rat, in vivo
[3] = mouse, in vivo
in vivo [4] = conditions: mouse, po, 20 mg/kg
[5] = system: Streptococcus pyogenes C203; experiment: standard agar dilution-method test (MIC); format: cell-based
Description: (§1) The MIC values were obtained by the standard agar dilution-method test.

[6] = system: Klebsiella pneumoniae X26; experiment: standard agar dilution-method test (MIC); format: cell-based
Description: as §1

Escherichia coli EC14 = experiment: standard agar dilution-method test (MIC); format: cell-based
Description: as §1

[7] = system: Streptococcus pneumoniae Park I; experiment: standard agar dilution-method test (MIC); format: cell-based
Description: as §1

Hemophilus influenzae 76 = experiment: standard agar dilution-method test (MIC); format: cell-based
Description: as §1

[8] = system: Hemophilus influenzae C.L.; experiment: standard agar dilution-method test (MIC); format: cell-based
Description: as §1

[9] = system: Klebsiella pneumoniae X65; experiment: standard agar dilution-method test (MIC); format: cell-based
Description: as §1

[10] = system: Streptococcus group D 2041; experiment: standard agar dilution-method test (MIC); format: cell-based
Description: as §1

[11] = system: Staphylococcus aureus X400; experiment: standard agar dilution-method test (MIC); format: cell-based
Description: as §1

Escherichia coli TEM = experiment: standard agar dilution-method test (MIC); format: cell-based
Description: as §1

[12] = system: Staphylococcus aureus S13E; experiment: standard agar dilution-method test (MIC); format: cell-based
Description: as §1

[13] = system: Staphylococcus epidermidis EPI2; experiment: standard agar dilution-method test (MIC); format: cell-based
Description: as §1

Escherichia coli N10 = experiment: standard agar dilution-method test (MIC); format: cell-based
Description: as §1

[14] = system: Staphylococcus epidermidis EPI1; experiment: standard agar dilution-method test (MIC); format: cell-based
Description: as §1

[15] = system: Staphylococcus aureus V41; experiment: standard agar dilution-method test (MIC); format: cell-based
Description: as §1

[16] = system: Streptococcus group D X66; experiment: standard agar dilution-method test (MIC); format: cell-based
Description: (§2) Antibiotic activity of selected compounds of Formual 1 is illustrated by the following in vitro and in vivo test data in Table I, the minimum inhibitory concentration (MIC) for representative compounds against a wide range of gram-positive and gram-negative bacteria is presented. The MIC values were obtained by the standard agar dilution-method test.

[17] = system: Klebsiella pneumoniae KAE; experiment: standard agar dilution-method test (MIC); format: cell-based
Description: as §2

[18] = system: Staphylococcus aureus X1.1; experiment: standard agar dilution-method test (MIC); format: cell-based
Description: as §1

Molecule	Minimum Inhibitory Concentration [5]	Minimum Inhibitory Concentration [6]	Minimum Inhibitory Concentration (Escherichia coli EC14)	Minimum Inhibitory Concentration [7]	Minimum Inhibitory Concentration (Hemophilus influenzae 76)	Minimum Inhibitory Concentration [8]	Minimum Inhibitory Concentration [9]	Minimum Inhibitory Concentration [10]	Minimum Inhibitory Concentration [11]	Minimum Inhibitory Concentration (Escherichia coli TEM)	Minimum Inhibitory Concentration [12]	Minimum Inhibitory Concentration [13]	Minimum Inhibitory Concentration (Escherichia coli N10)	Minimum Inhibitory Concentration [14]	Minimum Inhibitory Concentration [15]	Minimum Inhibitory Concentration [16]	Minimum Inhibitory Concentration [17]	Minimum Inhibitory Concentration [18]	further results
C#CCOC1=C(C(=O)O)N2C(=O)[C@@H](NC(=O)[C@H](N)c3ccccc3)[C@H]2SC1 [Test Compound 1, 7-(R)-[2'-(R)-2'-amino-2'-phenylacetamido]-3-(prop-1'-yn-3'-yloxy)-3-cephem-4-carboxylic acid zwitterion]	–	–	–	–	–	–	–	–	–	–	–	–	–	–	–	–	–	–	concentration at 20 min (in vivo [1]): 3900 ng/mL; concentration at 1 h (in vivo [1]): 15900 ng/mL; concentration at 2 h (in vivo [1]): 19300 ng/mL; concentration at 4 h (in vivo [1]): 14700 ng/mL; concentration at 6 h (in vivo [1]): 12300 ng/mL; concentration at 9 h (in vivo [1]): 8500 ng/mL; plasma levels in rats [2]: high plasma levels; oral absorption characteristics in mice [3]: excellent oral absorption characteristics; concentration at 20 min (in vivo [4]): 23100 ng/mL; concentration at 40 min (in vivo [4]): 12400 ng/mL; concentration at 1 h (in vivo [4]): 4000 ng/mL; concentration at 2 h (in vivo [4]): 850 ng/mL
Benzhydryl 7-(R)-[(2'R)-2'-(N-(t-butylcarbamato))-2'-(para-hydroxyphenyl)acetamido]-3-(prop-1'-yn-3'-yloxy)-3-cephem-4-carboxylate [Example 4]	0.06 µg/mL	2 µg/mL	2 µg/mL	0.5 µg/mL	8 µg/mL	8 µg/mL	2 µg/mL	32 µg/mL	64 µg/mL	8 µg/mL	16 µg/mL	1 µg/mL	4 µg/mL	8 µg/mL	8 µg/mL	64 µg/mL	64 µg/mL	–	–
Para-nitrobenzyl 7-(R)-[(2'R)-2'-(N-(t-butylcarbamato))-2' -phenylacetamido]-3-(prop-1'-yn-3'-yloxy)-3-cephem-4-carboxylate [Example 3]	0.5 µg/mL	64 µg/mL	64 µg/mL	1 µg/mL	128 µg/mL	128 µg/mL	128 µg/mL	128 µg/mL	128 µg/mL	128 µg/mL	128 µg/mL	8 µg/mL	128 µg/mL	128 µg/mL	128 µg/mL	128 µg/mL	128 µg/mL	8 µg/mL	–
Para-nitrobenzyl 7-(R)-phenoxyacetamido-3-(but-2'-yn-4'-yloxy)-3-cephem-4-carboxylate [Example 6]	0.06 µg/mL	4 µg/mL	4 µg/mL	0.25 µg/mL	4 µg/mL	8 µg/mL	4 µg/mL	32 µg/mL	64 µg/mL	16 µg/mL	64 µg/mL	1 µg/mL	8 µg/mL	16 µg/mL	64 µg/mL	128 µg/mL	128 µg/mL	0.5 µg/mL	–
Para-nitrobenzyl 7-(R)-phenoxyacetamido-3-(prop-1'-yn-3'-yloxy)-3-cephem-4-carboxylate [Example 1]	0.25 µg/mL	2 µg/mL	2 µg/mL	1 µg/mL	4 µg/mL	4 µg/mL	4 µg/mL	128 µg/mL	64 µg/mL	8 µg/mL	32 µg/mL	2 µg/mL	4 µg/mL	8 µg/mL	32 µg/mL	128 µg/mL	128 µg/mL	2 µg/mL	–
benzhydryl 7-(R)-[(2'R)-2'-(N-(t-butylcarbamato))-2'-phenylacetamido]-3-(prop-1'-yn-3'-yloxy)-3-cephem-4-carboxylate [Example 2]	0.06 µg/mL	2 µg/mL	4 µg/mL	0.25 µg/mL	8 µg/mL	4 µg/mL	4 µg/mL	64 µg/mL	128 µg/mL	16 µg/mL	128 µg/mL	2 µg/mL	16 µg/mL	32 µg/mL	128 µg/mL	128 µg/mL	128 µg/mL	2 µg/mL	–
